According to paper PMC7311950, “Potent Tetrahydroquinolone Eliminates Apicomplexan Parasites” (Frontiers in Cellular and Infection Microbiology, 2020):

Legend:
[1] = Caco-2 permeability assay; assay type: in vitro ADME; settings: human, A-B, read-out: Caco-2 permeability PappA-B
hERG = hERG (Homo sapiens, UniProt Q12809); assay: hERG liability; assay type: biochemical
[2] = test system: P-glycoprotein (P-gp, MDR1); assay: in vitro; settings: dog, MDCK-MDR1
Method: The effects of changing R1 as 7-Et, 7-Me, 6-CF3, or 6-Me on activity against RH strain tachyzoites, kinetic solubility, and metabolic stability were compared. Kinetic solubility and metabolic stability in human or murine liver microsomes were measured. The hERG (human Ether-à-go-go-Related) liability was also determined. The hERG gene (KCNH2) encodes a protein Kv11.1, the alpha subunit of a potassium ion channel. This channel conducts the rapid component of the delayed rectifier potassium current, IKr, which is critical for repolarization of cardiac action potentials. A reduction in hERG currents from adverse drug effects can lead to long QT interval syndromes. These syndromes are characterized by action potential prolongation, lengthening of the QT interval on surface EKG, and an increased risk for “torsade de pointes” arrhythmias and sudden death. The MDCK-MDR1 Permeability Assay was also performed. MDCK-MDR1 refers to the ability of a compound to permeate across membranes of MDCK-MDR1 (Madin Darby canine kidney [MDCK] cells with the MDR1 gene [ABCB1], the gene encoding for the efflux protein, P-glycoprotein (P-gp)) in vitro. Assessing transport in both directions (apical to basolateral and basolateral to apical) across the cell monolayers enables an efflux ratio to be determined. […] This provides a prediction of blood brain barrier (BBB) penetration potential/permeability and efflux ratio. Effect in CACO-2 (Colon Adenocarcinoma cells) as a permeability assay and on cytochrome P450 (CYP 450) were also determined. CYP enzymes catalyze oxidative biotransformation (phase 1 metabolism) of most drugs. CYP enzymes, bind to membranes in a cell (cyto) and contain a heme pigment (chrome and P) that absorbs light at a wavelength of 450 nm when exposed to carbon monoxide. Metabolism of a drug by CYP enzymes is a major source of variability in drug effect. These were measured by Chem Partners. The relative effect on HFF and parasite enzymes also were compared.
In vitro absorption, distribution, metabolism, excretion, and toxicity (ADMET) analyses of the THQ compounds were outsourced to ChemPartner Shanghai Ltd. ELQ-271 (synthesized in-house) was tested as a comparison.

[3] = test system: T. gondii (Prugneaud strain expressing luciferase) tachyzoites; assay: Type II Prugneaud luciferase tachyzoite infection of Balb/C mice, IVIS and brain cysts; assay type: in vivo, Toxoplasma gondii
Method: Balb/C mice were infected intraperitoneally (IP) with 20 × 10^3 T. gondii (Prugneaud strain expressing luciferase) tachyzoites. Treatment began 2 h later with JAG21 (5 mg/kg) which was dissolved in DMSO, administered IP in a total volume of 0.05 mL. Mice were imaged every second day starting on day 4 post infection using an IVIS Spectrum (Caliper Life Sciences) for […], with medium binning, 20 min post injection with 150 mg/kg of D-luciferin potassium salt solution.
Brain cysts were searched for in paraffin imbedded tissue of the surviving Prugneaud strain infected treated Balb/C mice in the IVIS study, 30 days after infection which was 16 days after treatment had been discontinued. All treated mice had survived. There were no surviving untreated mice in those experiments.

P. berghei sporozoites = assay: P. berghei causal prophylaxis in vivo model; set-up: species or system Plasmodium berghei; settings: oral nanoformulation, single dose 2.5 mg/kg day 0 or 3 doses 0.625 mg/kg days −1, 0, +1; C57BL/6 albino mice
Description: P. berghei sporozoites were obtained from laboratory-reared female Anopheles stephensi mosquitoes which were maintained at 18 degrees C for 17–22 days after feeding on a luciferase expressing P. berghei infected Swiss CD1ICR. Using a dissecting microscope, the salivary glands were extracted from malaria-infected mosquitoes and sporozoites were obtained. Briefly, mosquitoes were separated into head/thorax and abdomen. Thoraxes and heads were triturated with a mortar and pestle and suspended in medium RPMI 1640 containing 1% C57BL/6 mouse serum (Rockland Co, Gilbertsville, PA, USA). […] They were stained with a vital dye containing fluorescein diacetate (50 mg/mL in acetone) and ethidium bromide (20 μg/mL in phosphate buffered saline; Sigma Chemical Co, St. Louis, MO, USA) and counted in a hemocytometer to ensure that inoculated sporozoites were viable following the isolation procedure. […]
Animals were dosed with experimental compounds based on body weight. […] To insure the size of the compounds in the dosing solution were under […], the suspension was homogenized using a homogenizer (PRO Scientific Inc, Monroe, CT, USA) with a 10 mm open-slotted generator running at 20,000–22,000 rpm for 5 min in an ice bath. […] Stability beyond that time was not determined. […]

hERG, sequence (Q12809 whole entry): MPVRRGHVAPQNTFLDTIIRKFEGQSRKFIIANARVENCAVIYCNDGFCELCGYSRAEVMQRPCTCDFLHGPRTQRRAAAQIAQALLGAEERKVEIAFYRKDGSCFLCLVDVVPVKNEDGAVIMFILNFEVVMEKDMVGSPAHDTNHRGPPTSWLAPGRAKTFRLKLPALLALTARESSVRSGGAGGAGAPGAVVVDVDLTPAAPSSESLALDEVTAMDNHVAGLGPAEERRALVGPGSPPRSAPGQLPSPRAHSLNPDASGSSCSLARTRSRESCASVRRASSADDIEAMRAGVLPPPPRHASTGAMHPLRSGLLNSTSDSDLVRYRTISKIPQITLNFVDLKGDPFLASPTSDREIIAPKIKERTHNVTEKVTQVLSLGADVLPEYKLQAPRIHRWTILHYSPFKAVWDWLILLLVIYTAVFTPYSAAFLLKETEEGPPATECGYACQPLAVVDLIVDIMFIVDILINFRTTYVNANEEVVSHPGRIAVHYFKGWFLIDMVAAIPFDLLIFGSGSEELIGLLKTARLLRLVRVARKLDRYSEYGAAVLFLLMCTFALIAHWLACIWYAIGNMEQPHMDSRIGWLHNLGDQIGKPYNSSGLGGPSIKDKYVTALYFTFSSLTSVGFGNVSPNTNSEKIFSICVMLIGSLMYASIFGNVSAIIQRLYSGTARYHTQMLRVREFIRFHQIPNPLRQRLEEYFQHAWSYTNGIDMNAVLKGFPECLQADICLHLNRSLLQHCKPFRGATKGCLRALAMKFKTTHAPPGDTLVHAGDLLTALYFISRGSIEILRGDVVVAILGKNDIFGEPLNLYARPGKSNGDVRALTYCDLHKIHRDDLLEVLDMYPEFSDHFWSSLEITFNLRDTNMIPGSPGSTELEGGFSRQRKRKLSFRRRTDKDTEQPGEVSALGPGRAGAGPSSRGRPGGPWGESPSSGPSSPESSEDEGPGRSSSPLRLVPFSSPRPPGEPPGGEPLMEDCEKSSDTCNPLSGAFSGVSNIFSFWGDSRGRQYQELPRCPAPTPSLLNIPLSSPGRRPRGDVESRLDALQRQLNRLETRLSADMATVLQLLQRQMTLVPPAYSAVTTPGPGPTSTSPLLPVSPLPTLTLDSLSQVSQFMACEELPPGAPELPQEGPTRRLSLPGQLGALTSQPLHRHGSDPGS

## Cc1[nH]c2c(c(=O)c1-c1ccc(Oc3ccc(OC(F)(F)F)cc3)cc1)CCCC2 [JAG21, 2-Methyl-3-(4-(4-(Trifluoromethoxy)Phenoxy)Phenyl)-5,6,7,8-Tetrahydroquinolin-4-One]
[1]
  Papp: > 10 ×10⁻⁶ cm/s
hERG
  IC50: 22 µM
[2]
  Papp: > 10 ×10⁻⁶ cm/s
  efflux ratio: < 1.5
[3]; 5 mg/kg/day IP
  luciferase expressing parasites by IVIS: eliminates leuciferase expressing parasites
[3]; 5 mg/kg/day IP for 14 days
  survival of infected mice: 100%
[3]; treated first 14 days with 5 mg/kg/day IP, 5 mg/kg/day
  cysts in brains: No cysts were found
P. berghei sporozoites
  survival 30 days post infection: 100%
